Consider two compounds from patent publication US8153625B2, “Nitrogen-containing heterocyclic compounds and medicinal use thereof” (Ono Pharmaceutical Co., Ltd., priority 2002, dated 2012).

pIC50: −log10 of the molar value.

Series [1] addresses T1, CXCR4 (Homo sapiens, UniProt P61073).
T1 construct: a human T cell line known to express CXCR4 can be employed; endogenous in cells; host or cells: CEM (human T cell line), whole cells
The series is described as follows: Inhibition of binding of human 125I-SDF-1 to CEM cells. The conditions noted are these: 125I-SDF-1 binding to human T cell line CEM. The text has this: Typically, as an assay for screening for a compound which inhibits the binding between SDF-1 and CXCR4, a system measuring the binding between an I-labeled SDF-1 and a human T cell line known to express CXCR4 can be employed. Since both of a macrophage (R5) HIV and RANTES, MIP- 1 a, MIP-1I3 bind to CCR5, a similar understanding is possible.
Inhibition of Human SDF-1 with CEM Cell
In a binding buffer solution (HEPES containing BSA), a human T cell line CEM cell was mixed with a test compound and ^125I-SDF-1 (NEN) and incubated for 60 minutes at […]. The reacted CEM cell was filtered rapidly through a GF/B membrane filter plate (Packard) to effect adsorption, followed by washing three times with PBS, drying and addition of Microscint+20 (Packard).

T1 sequence (P61073 whole entry): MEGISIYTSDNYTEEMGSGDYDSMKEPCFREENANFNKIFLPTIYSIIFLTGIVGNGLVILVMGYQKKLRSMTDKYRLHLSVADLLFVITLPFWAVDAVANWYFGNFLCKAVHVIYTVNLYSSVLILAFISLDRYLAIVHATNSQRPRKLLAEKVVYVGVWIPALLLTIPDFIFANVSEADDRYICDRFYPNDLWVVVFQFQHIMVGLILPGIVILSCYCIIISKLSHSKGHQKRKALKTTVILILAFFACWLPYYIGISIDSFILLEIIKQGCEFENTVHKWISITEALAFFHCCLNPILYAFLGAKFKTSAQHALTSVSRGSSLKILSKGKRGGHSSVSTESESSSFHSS

What is called melting point is the temperature, or range, at which the solid turns liquid. One may read the pIC50 as −log10 of the IC50, conventionally taken in molar units. Lower therefore signals a large IC50. For the compound `Cl.Cl.NCCNc1nccc(N2CCCCCC2)n1` [Example 1(41), 2-(2-aminoethylamino)-4-(perhydroazepin-1-yl)pyrimidine dihydrochloride], the melting point lay in the range of 100 to 102 °C. This compound also gave a pIC50 in series [1] of 6.70. `c1ccc(CN2CCC(Nc3nccc(N4CCCCCC4)n3)C2)cc1` (stereo not drawn) [Example 4, 2-(1-benzylpyrrolidin-3-ylamino)-4-(perhydroazepin-1-yl)pyrimidine] gave a pIC50 in series [1] of 6.82.
